The numbers were not newly measured in publication PMC12430278, “A Simple and Reliable Method for the Determination of Isorhapontigenin in Murine Biological Matrices: Application in a Tissue Distribution Study” (Molecules, 2025), which cites them from elsewhere.

SMILES strings stand for the structures.

On the set-up of data set [1]: method as in PMID 39456808. Particulars: Sprague Dawley rats, two weeks daily oral 100 µmol/kg/day; cited from earlier work.
The conditions of data set [2]: enzymatic-hydrolysis approach; cited from earlier work.
For data set [3] the following is noted: cited from earlier work.

With `COc1cc(/C=C/c2cc(O)cc(O)c2)ccc1O` [ISO, trans-3,5,4′-trihydroxy-3′-methoxystilbene], in data set [1], the Blood cholesterol levels result is reported as “healthier blood cholesterol levels”, the Body weight gain entry was “less body weight gain” and the Toxicity result is “no significant toxicity was observed”. Also, in data set [2], the Glucuronidation entry is on record as “extensive glucuronidation” and the Sulfation result is “not detected”. Further, the “Change in oral bioavailability after one-week repeated dosing” value in data set [3] (one-week repeated dosing) is “did not result in any significant changes”. In data set [3] (rats, oral), the Absolute oral bioavailability was 20–30% and the “Time of peak plasma concentrations post-dosing” value is listed as at most 15 min.
